Experimental data as given in paper PMC5039936 (Clinical Pharmacology and Therapeutics, 2015).
Values joined by “and” are separate entries in the source; they are usually repeats but may differ in a detail not shown here. Equal values may be shown once.

Key:
[1] = Plasma protein binding by rapid equilibrium dialysis in study C21010; assay type: in vitro ADME; details: human, oral, 200 mg, mean percent unbound of orteronel in plasma, range across the renal function groups
[2] = Phase 1 renal impairment study C21010, urine PK; assay type: in vivo, human; details: geometric mean; for CL renal: human, urine, oral, 200 mg, CLrenal
[3] = Phase 1 single-dose renal impairment study C21010, plasma PK; assay type: in vivo, human; details: for AUC(0-inf): human, plasma, po, 200 mg, AUCinf, geometric LSM, single oral 200 mg dose; for increase in mean AUCinf compared with normal renal function: single 200 mg dose
[4] = In vitro clearance in human hepatocytes; assay type: in vitro ADME
[5] = Population PK model of plasma orteronel in patients with mCRPC; assay type: in vivo, human
[6] = In vitro clearance in human liver microsomes; assay type: in vitro ADME
[7] = ref unpublished data, Suri, A., Pusalkar, S., Li, Y., & Prakash, S. Clin. Pharmacol. Drug Development 2015, cited from earlier work

In the case of `CNC(=O)c1ccc2cc([C@@]3(O)CCn4cncc43)ccc2c1` [orteronel], the fraction unbound at 2 h [1] is reported as 0.547 to 0.589, the CL renal ([2]; mild chronic RI) is reported as 97.8 mL/min and the CL renal ([2]; moderate chronic RI) is reported as 49.2 mL/min. The CL renal ([2]; normal renal function) was 158 mL/min, the CL renal ([2]; severe chronic RI) was 25.8 mL/min and the “fraction of dose excreted as unchanged orteronel (Fe)” value ([2]; mild chronic RI) was 33.1%. The “fraction of dose excreted as unchanged orteronel (Fe)” value ([2]; moderate chronic RI) was 19.4%, the “fraction of dose excreted as unchanged orteronel (Fe)” value ([2]; normal renal function) was 44.9% and the “fraction of dose excreted as unchanged orteronel (Fe)” value ([2]; severe chronic RI) was 13.8%. For the same molecule, the “slope of regression of CL/F vs CLcr” value ([3]; CL/F = 10.90 + 0.101*CLcr, r2 = 0.2177) was 0.101, the AUC(0-inf) ([3]; mild chronic renal impairment (CLcr ≥60–89 mL/min)) was 11300 ng·h/mL and the AUC(0-inf) ([3]; moderate chronic renal impairment (CLcr ≥30–59 mL/min)) was 13100 ng·h/mL. The AUC(0-inf) ([3]; normal renal function (CLcr ≥90 mL/min), fasted) was 9500 ng·h/mL, the AUC(0-inf) ([3]; severe chronic renal impairment (CLcr ≥15–29 mL/min)) was 17800 ng·h/mL and the “increase in mean AUCinf compared with normal renal function” value (shortened to “increase in mean AUCinf”) ([3]; mild chronic RI) was 18.6% and 19%. The “increase in mean AUCinf” value ([3]; moderate chronic RI) was 38% and 38.4%, the “increase in mean AUCinf” value ([3]; severe chronic RI) was 87% and 87.1% and the in vitro clearance [4] was “no appreciable in vitro clearance”. The ka ([5]; base model, mean (SD)) was 2.1 (0.2) h^−1, the “predicted decrease in CL/F” value ([5]; final PK model, reduction in CLcr from 92 to 46 mL/min) was 28% and the BILI on ka ([5]; final model covariate effect, mean (SD)) was “–0.46 (0.20)”. The CL/F ([5]; final model, mean (SD)) was 17.7 L/h, the V/F ([5]; final model, mean (SD)) was 261 L and the ka ([5]; final model, mean (SD)) was 2.2 (0.3) h^−1. For the same molecule, the in vitro clearance [6] was “no appreciable in vitro clearance”, the “share of orteronel CL characterized as renal CL” value ([7]; intact parent compound in urine) was 53% and the “share of CL characterized as other CL” value ([7]; metabolites formed via hydrolysis, neither renal nor hepatic) was 19%.
